Each molecule was assayed against Transcription factor p65 (Homo sapiens) (UniProt Q04206) (assay: Inhibition of NF-kappaB DNA binding by EMSA).
Chain of Transcription factor p65 (Homo sapiens) (Q04206 whole entry): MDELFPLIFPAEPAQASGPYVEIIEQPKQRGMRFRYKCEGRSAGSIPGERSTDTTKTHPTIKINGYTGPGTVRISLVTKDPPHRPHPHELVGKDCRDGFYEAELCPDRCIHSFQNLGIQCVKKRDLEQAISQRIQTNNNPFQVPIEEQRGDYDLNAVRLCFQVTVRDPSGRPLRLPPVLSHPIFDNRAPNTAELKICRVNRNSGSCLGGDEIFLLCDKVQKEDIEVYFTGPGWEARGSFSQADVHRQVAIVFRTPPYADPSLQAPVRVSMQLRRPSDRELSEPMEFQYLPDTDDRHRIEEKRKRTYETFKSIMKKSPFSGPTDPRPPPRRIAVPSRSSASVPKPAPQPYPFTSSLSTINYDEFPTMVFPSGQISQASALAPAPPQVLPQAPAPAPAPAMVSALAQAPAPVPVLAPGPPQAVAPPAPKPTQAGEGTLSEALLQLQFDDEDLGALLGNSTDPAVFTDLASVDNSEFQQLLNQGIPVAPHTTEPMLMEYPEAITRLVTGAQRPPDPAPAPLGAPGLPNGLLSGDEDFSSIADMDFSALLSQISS

`C=C(C)C(=O)O[C@@H]1C[C@@](C)(O)[C@@H]2C(=O)C=C(C)[C@@H]2[C@H]2OC(=O)C(=C)[C@@H]21` was tested. Which IC100 did it give?
Its IC100 is 20 µM.

How did the IC100 turn out when `C=C1C(=O)O[C@H]2[C@H]1[C@@H](OC(=O)/C(C)=C/C)C/C(C)=C\[C@@]1(OC)C=C(C)[C@@H]2O1` was run?
Its IC100 is 10 µM.

How did the IC100 turn out when `C=C(C)C(=O)O[C@H]1C/C(C)=C/C(=O)/C=C(/C)[C@H](O)[C@H]2OC(=O)C(=C)[C@@H]21` was run?
Its IC100 is 10 µM.

Which IC100 does the source give for `C/C=C(\C)C(=O)O[C@H]1[C@@H]2[C@H](C)C(=O)O[C@@H]2C[C@@H](C)[C@@H]2C=CC(=O)[C@]21C` here?
The IC100 was 100 µM.

`C=C1C(=O)C[C@H]2C(=C)C(=O)O[C@@H]2/C=C(\COC(=O)C(C)C)CC[C@H]1OC` was tested. Which IC100 did it give?
The IC100 was 25 µM.

How did the IC100 turn out when `C=C(C)C(=O)O[C@@H]1/C=C(\C=O)CCC[C@@]2(CO2)[C@H](O)[C@H]2OC(=O)C(=C)[C@@H]21` was run?
Its IC100 is 5 µM.

Which IC100 does the source give for `C=C(C)C(=O)O[C@@H]1/C=C(\C=O)[C@H](OC)CCC(=C)[C@H](O)[C@H]2OC(=O)C(=C)[C@@H]21` here?
The IC100 was 10 µM.

How did the IC100 turn out when `C=C1C(=O)O[C@H]2C[C@]3(C)O[C@@H]3C[C@@H](OC(C)=O)C3=C[C@@H](OC3=O)[C@H]12` was run?
Its IC100 is 10 µM.

For `C=C1C(=O)O[C@@H]2C[C@@]3(C)[C@H](OC(C)=O)CC[C@](O)(COC(=O)C(C)C)[C@@H]3C[C@H]12`, which IC100 is on record?
Its IC100 is 100 µM.

`CC[C@@H](C)[C@@]1(O)O[C@H]2C[C@@]3(C)OC(=CC3=O)/C(CO)=C\[C@H]3OC(=O)[C@@]1(C)C23` (stereo not given in full) was tested. Which IC100 did it give?
Its IC100 is 100 µM.

With `C=C1C(=O)O[C@@H]2[C@H]3C(C)=CC[C@H]3[C@](C)(O)C[C@H](O)[C@@H]12` as the molecule, how does the IC100 read?
Its IC100 is 100 µM.

For `C=C1C(=O)O[C@H]2/C=C(\C)CC/C=C(\C)[C@@H](OC(=O)/C(C)=C/C)[C@H](O)[C@@H]12`, which IC100 is on record?
The IC100 was 100 µM.

For `C=C1C(=O)O[C@@H]2[C@H]3C(C)=CC[C@H]3[C@](C)(O)C[C@H](OC(C)=O)[C@@H]12`, which IC100 is on record?
Its IC100 is 20 µM.

For `C=C(C)C(=O)O[C@@H]1[C@@H]2C(=C)C(=O)O[C@@H]2C[C@@H](C)[C@@H]2C=CC(=O)[C@@]12C`, which IC100 is on record?
The IC100 was 5 µM.

For `C=C(C)C(=O)O[C@@H]1C[C@@]2(C)OC(=CC2=O)/C(C)=C\[C@H]2OC(=O)C(=C)[C@@H]21`, which IC100 is on record?
Its IC100 is 10 µM.

Which IC100 does the source give for `C=C1C(=O)O[C@H]2C/C(CO)=C/CC/C(COC(=O)C(C)C)=C/C[C@H]12` here?
The IC100 was 50 µM.

`C=C1C(=O)O[C@@H]2/C=C(\C)CC/C=C(\C)[C@@H](OC(C)=O)C[C@@H]12` was tested. Which IC100 did it give?
Its IC100 is 200 µM.

With `C=C1C(=O)O[C@@H]2/C=C(/CO)[C@@]3(O)C[C@@H](O)[C@@](C)(C[C@@H](OC(=O)/C(C)=C\C)[C@@H]12)O3` as the molecule, how does the IC100 read?
Its IC100 is 20 µM.

`C=C1C(=O)O[C@H]2C/C(CO)=C/CC/C(COC(=O)C(C)CO)=C/C[C@H]12` (stereo not given in full) was tested. Which IC100 did it give?
Its IC100 is 100 µM.

With `C=C1C(=O)O[C@@H]2C[C@@H](C)[C@@H]3[C@@H](OC(C)=O)C[C@@H](O)[C@@]3(C)[C@@H](O)[C@H]12` as the molecule, how does the IC100 read?
The IC100 was 200 µM.

For `C=C1C(=O)O[C@@H]2C[C@@H](C)[C@@H]3C=CC(=O)[C@@]3(C)[C@@H](O)[C@H]12`, which IC100 is on record?
The IC100 was 10 µM.

With `C=C1C(=O)O[C@H]2C/C(CO)=C/CC/C(COC(=O)C3(C)CO3)=C/C[C@H]12` (stereo not given in full) as the molecule, how does the IC100 read?
Its IC100 is 50 µM.

How did the IC100 turn out when `C=C(C)C(=O)O[C@H]1C/C(C)=C\[C@@]2(OC)C=C(C)[C@H](O2)[C@H]2OC(=O)C(=C)[C@@H]21` was run?
Its IC100 is 10 µM.

`C=C1C(=O)O[C@@H]2[C@@H]3[C@@](C)(CC[C@@H]12)[C@@H](O)C[C@H]1O[C@@]31C` was tested. Which IC100 did it give?
Its IC100 is 200 µM.

For `C=C1C(=O)O[C@H]2C/C(CO)=C/CC/C(COC(=O)C(C)CC)=C/C[C@H]12` (stereo not given in full), which IC100 is on record?
The IC100 was 50 µM.

Which IC100 does the source give for `C=C(C)C(=O)O[C@H]1[C@H]2C(=C)C(=O)O[C@@H]2[C@@H](O)C(=C)CC/C=C(/C=O)[C@@H]1OC(C)=O` here?
The IC100 was 10 µM.

Which IC100 does the source give for `C=C1C(=O)O[C@@H]2C[C@@]3(C)[C@H](O)CC[C@](O)(COC(=O)C(C)C)[C@@H]3C[C@H]12` here?
The IC100 was 200 µM.

`C=C1C(=O)O[C@H]2CC(=C)[C@H](O)CC/C(C)=C/[C@@H](O)[C@H]12` was tested. Which IC100 did it give?
Its IC100 is 50 µM.

How did the IC100 turn out when `C=C1C(=O)O[C@@H]2[C@H]3C(C)=CC[C@H](O)[C@]3(C)CC[C@@H]12` was run?
Its IC100 is 300 µM.

How did the IC100 turn out when `C=C1C(=O)O[C@]23C[C@H]1CCC(CO)=C2C(=O)C=C3C` was run?
The IC100 was 50 µM.
